Measured values taken from patent publication US10768161B2, “Method for ecological risk assessment of heavy metal in river basin sediment based on toxicity effect” (CHINESE RESEARCH ACADEMY OF ENV[…], priority 2015, dated 2020).

Experiments:
aquatic organisms [1] = test: Species Sensitivity Distributions (SSD) curve fitting, toxic concentration HC5; design: Toxic concentration: unit not given here; conditions: for Toxic concentration: HC5^i, protects 95% of aquatic organisms, Table 3
Excerpt: (5) collecting the chronic toxicity data of the i^th heavy metal on aquatic species selected in step (1), performing curve fitting on the collected data, and selecting the curve regression equation with the highest goodness of fit, so as to obtain the best equation for the sensitivity of the i^th heavy metal;
(6) drawing a fitting curve (Species Sensitivity Distributions, SSD) according to the best fitting equation obtained in step (5), and setting the y value of this equation, that is, the cumulative probability to 0.05, and then calculating the corresponding x value, which is the toxic concentration HC5^i of the i^th heavy metal that protects 95% of aquatic organisms;
Preferably, plotting the collected concentration values of toxicity data for different species of organisms against the quantiles arranged in concentration, and selecting the curve equation to fit based on the resulting data point distribution shape. The fitting should adopt several different functions and select the optimal regression curve, so as to avoid the systematic errors introduced by improper selection of functions. When the distribution of the toxicity data points is a common S-type, the fitting curves are preferred to use the log-Normal distribution function, the log-logistic distribution function, the log-triangular distribution function, or a combination thereof. When the distribution of the toxicity data points is different from the common S-type distribution, other curves or non-parametric methods can be used to fit the data points, for example, using the Burr type III distribution function as the regression curve equation of the toxicity data of heavy metals.
Preferably, the goodness of fit described in step (5) is determined by the toxicity data points and the judgment coefficient R^2 of the resulting curve regression equation: when the judgment coefficient R^2 of the curve regression equation gets closer to 1, the goodness of the curve regression equation for the data is higher.
Preferably, the concentration HC5^i of the i^th heavy metal that protects 95% of aquatic organisms described in step (6) is the toxicity data corresponding to the cumulative probability of 5% aquatic organisms on the fitted curve.

aquatic organisms [2] = test: Integration and normalization of release coefficient and HC5 to toxicity coefficient S^i; conditions: for Toxicity coefficient: Table 4; for Square root (toxicity coefficient S^i): final step of integration and normalization, Table 3
Excerpt: (7) repeating steps (4) to (6) n times to obtain the release coefficient cs^i and toxic concentration HC5^i of each heavy metal determined in step (2), and integrating and normalizing the release coefficient cs^i and toxic concentration HC5^i of each heavy metal to obtain the toxicity coefficient S^i of the i^th heavy metal;
Preferably, the integrating and normalizing regulation described in step (7) comprises the following calculation steps:
a. calculating the reciprocal of the concentration HC5^i of the i^th heavy metal, and keeping three significant figures for each value obtained;
b. dividing each reciprocal number obtained in step a by the smallest one of them, and keeping three significant figures for each value obtained;
c. multiplying each value obtained in step b by the release coefficient cs^i of the corresponding i^th heavy metal;
d. dividing each value obtained in step c by the smallest one of them, and keeping three significant figures for each value obtained; […]

[3] = Ecological risk assessment of heavy metals in a lake basin sediment; conditions: for Toxicity response coefficient: Tr^i=S^i*(5/BPI)^x, lake BPI=6.7; for Pollution risk index: ecological risk index Er^i=Tr^i*cf^i for the lake
Excerpt: (8) calculating the toxicity response coefficient Tr^i of the i^th heavy metal according to the formula Tr^i=S^i*(5/BPI)^X one by one, where BPI is the biological yield index of the water body evaluated and the value of x is 1, ½ or 0;
(9) calculating the ecological risk index Er^i of the i^th heavy metal according to the formula Er^i=Tr^i*cf^i one by one, and the resulting Er^i is used to evaluate the ecological risk of a single metal to the assessed river basin: when Er^i<30, the ecological hazard of the i^th heavy metal to the assessed river basin is slight, when 30≤Er^i<60, the ecological hazard of the i^th heavy metal to the assessed river basin is medium, when 60≤Er^i<120, the ecological hazard of the i^th heavy metal to the assessed river basin is strong, when 120≤Er^i<240, the ecological hazard of the i^th heavy metal to the assessed river basin is very strong, when Er^i>240, the ecological hazard of the i^th heavy metal to the assessed river basin is extremely strong.
Preferably, the ecological assessment method described above also includes the step (10), that is using the formula RI=Σi=1^N Er^i to calculate the total ecological risk comprehensive index RI caused by multiple heavy metal pollutants in the water body and then using RI to evaluate the ecological risk of the assessed river basin: when RI<150, there is a slight ecological hazard in the river basin, when 150≤RI<300, there is a medium ecological hazard in the river basin, when 300≤RI<600, there is a very strong ecological hazard in the river basin, when RI≥600, there is an extremely strong ecological hazard in the river basin.
Preferably, the BPI described in step (8) is the bioproduction index, which is determined by the burning amount and nitrogen content of the sediment samples. BPI indicates the sensitivity of water to heavy metal pollutions, namely the effects of Eh and pH of pore water in sediments, and pH, salinity, and alkalinity of overlying water on the various heavy metals in the water.
Preferably, the value of x described in step (8) is determined by the type of heavy metals that is measured. The toxicity response coefficient of Hg decreases with the increase of BPI, and the relationship between them is linear. Therefore, when the measured metal is Hg, the value of x is 1. The toxicity response coefficient of As is independent of BPI. Therefore, when the measured metal is As, the value of x is 0. The toxicity response coefficient of other heavy metals also decreases with the increase of BPI, but it is not linear. Therefore, when the measured metal is not Hg or As, the value of x is ½.

[4] = cited from earlier work; for Release coefficient: Table 3
Pyrrophyta = conditions: chronic toxicity, Phytoplankton; cited from earlier work
Scenedesmus = conditions: chronic toxicity, Phytoplankton; cited from earlier work
Cryptophyta = conditions: chronic toxicity, Phytoplankton; cited from earlier work
Wild lotus = conditions: chronic toxicity, Hydrophyte; cited from earlier work
Duckweed = conditions: chronic toxicity, Hydrophyte; cited from earlier work
Azolla pinnata = conditions: chronic toxicity, Hydrophyte; cited from earlier work
Arenaceous sanding = conditions: chronic toxicity, Zooplankton; cited from earlier work
Brachionus calyciflorus = conditions: chronic toxicity, Zooplankton; cited from earlier work
Bosmina = conditions: chronic toxicity, Zooplankton; cited from earlier work
Protosalanx hyalocranius = conditions: chronic toxicity, Fishes; cited from earlier work
Carp = conditions: chronic toxicity, Fishes; cited from earlier work
Coilia nasus taihuensis = conditions: chronic toxicity, Fishes; cited from earlier work
Corbicula fluminea = conditions: chronic toxicity, Zoobenthos; cited from earlier work
Chironomus = conditions: chronic toxicity, Zoobenthos; cited from earlier work
Bellamya aeruginosa = conditions: chronic toxicity; Zoobenthos, Bellamya aeruginose; cited from earlier work

[As] [As]
Toxic concentration (aquatic organisms [1]): 14.9 | Toxicity coefficient (aquatic organisms [2]): 1.50 | Square root (toxicity coefficient S^i) (aquatic organisms [2]): 1.5 | Toxicity response coefficient [3]: 1.50 | Pollution risk index [3]: 1.05 | Release coefficient [4]: 27

[Cd] [Cd]
Toxic concentration (aquatic organisms [1]): 0.3 | Toxicity coefficient (aquatic organisms [2]): 28.00 | Square root (toxicity coefficient S^i) (aquatic organisms [2]): 28 | Toxicity response coefficient [3]: 24.19 | Pollution risk index [3]: 18.38 | Release coefficient [4]: 200

[Cr] [Cr]
Toxic concentration (aquatic organisms [1]): 2.42 | toxic concentration HC5^i that protects 95% of aquatic organisms (aquatic organisms [1]; cumulative probability 0.05 on log-logistic SSD fit of chronic toxicity data): 2.42 µg/L | Toxicity coefficient (aquatic organisms [2]): 1.00 | Square root (toxicity coefficient S^i) (aquatic organisms [2]): 1 | Toxicity response coefficient [3]: 0.86 | Pollution risk index [3]: 0.68 | Toxicity data (NOEC) (Pyrrophyta): 671 µg/kg | Toxicity data (NOEC) (Scenedesmus): 8 µg/kg | Toxicity data (NOEC) (Cryptophyta): 317 µg/kg | Toxicity data (NOEC) (Wild lotus): 123 µg/kg | Toxicity data (NOEC) (Duckweed): 1000 µg/kg | Toxicity data (NOEC) (Azolla pinnata): 625 µg/kg | Toxicity data (NOEC) (Arenaceous sanding): 1500 µg/kg | Toxicity data (NOEC) (Brachionus calyciflorus): 1789 µg/kg | Toxicity data (NOEC) (Bosmina): 46.5 µg/kg | Toxicity data (NOEC) (Protosalanx hyalocranius): 4405 µg/kg | Toxicity data (NOEC) (Carp): 23516 µg/kg | Toxicity data (NOEC) (Coilia nasus taihuensis): 6941 µg/kg | Toxicity data (NOEC) (Corbicula fluminea): 1.13 µg/kg | Toxicity data (NOEC) (Chironomus): 20 µg/kg | Toxicity data (NOEC) (Bellamya aeruginosa): 250 µg/kg | Release coefficient [4]: 2 | release coefficient cs^1 ([4]; from the literature): 2×10^−3

[Cu] [Cu]
Toxic concentration (aquatic organisms [1]): 0.89 | Toxicity coefficient (aquatic organisms [2]): 17.00 | Square root (toxicity coefficient S^i) (aquatic organisms [2]): 17 | Toxicity response coefficient [3]: 14.69 | Pollution risk index [3]: 26.73 | Release coefficient [4]: 200

[Hg] [Hg]
Toxic concentration (aquatic organisms [1]): 0.53 | Toxicity coefficient (aquatic organisms [2]): 27.00 | Square root (toxicity coefficient S^i) (aquatic organisms [2]): 27 | Toxicity response coefficient [3]: 20.15 | ecological hazard to the lake ([3]; class by Er^i of single metal): medium (when 30≤Er^i<60, the ecological hazard of the i^th heavy metal to the assessed river basin is medium) | Pollution risk index [3]: 54.40 | Release coefficient [4]: 320

[Ni] [Ni]
Toxic concentration (aquatic organisms [1]): 6.03 | Toxicity coefficient (aquatic organisms [2]): 5.50 | Square root (toxicity coefficient S^i) (aquatic organisms [2]): 5.5 | Toxicity response coefficient [3]: 4.75 | Pollution risk index [3]: 3.85 | Release coefficient [4]: 147

[Pb] [Pb]
Release coefficient [4]: 71

[Zn] [Zn]
Toxic concentration (aquatic organisms [1]): 10.83 | Toxicity coefficient (aquatic organisms [2]): 2.50 | Square root (toxicity coefficient S^i) (aquatic organisms [2]): 2.5 | Toxicity response coefficient [3]: 2.16 | Pollution risk index [3]: 2.66 | Release coefficient [4]: 57
